Results: patent publication EP0075895A2, “Pharmaceutical amides, and preparation, formulations and use thereof” (THE WELLCOME FOUNDATION LIMITED, priority 1981, dated 1983)
Counter-ions that a name gives are not always drawn.

Target: T1, enkephalinase Al (Rattus norvegicus, UniProt P07861)
T1 construct: the solubilised enzymes contained in the supernatent separated by DEAE-cellulose column chromatograph; from tissue; host or cells: rat striatum (washed membrane pellet, solubilised with Triton X-100, then DEAE-cellulose and Sephacryl S.300 chromatography)
T1 sequence (P07861 1-750): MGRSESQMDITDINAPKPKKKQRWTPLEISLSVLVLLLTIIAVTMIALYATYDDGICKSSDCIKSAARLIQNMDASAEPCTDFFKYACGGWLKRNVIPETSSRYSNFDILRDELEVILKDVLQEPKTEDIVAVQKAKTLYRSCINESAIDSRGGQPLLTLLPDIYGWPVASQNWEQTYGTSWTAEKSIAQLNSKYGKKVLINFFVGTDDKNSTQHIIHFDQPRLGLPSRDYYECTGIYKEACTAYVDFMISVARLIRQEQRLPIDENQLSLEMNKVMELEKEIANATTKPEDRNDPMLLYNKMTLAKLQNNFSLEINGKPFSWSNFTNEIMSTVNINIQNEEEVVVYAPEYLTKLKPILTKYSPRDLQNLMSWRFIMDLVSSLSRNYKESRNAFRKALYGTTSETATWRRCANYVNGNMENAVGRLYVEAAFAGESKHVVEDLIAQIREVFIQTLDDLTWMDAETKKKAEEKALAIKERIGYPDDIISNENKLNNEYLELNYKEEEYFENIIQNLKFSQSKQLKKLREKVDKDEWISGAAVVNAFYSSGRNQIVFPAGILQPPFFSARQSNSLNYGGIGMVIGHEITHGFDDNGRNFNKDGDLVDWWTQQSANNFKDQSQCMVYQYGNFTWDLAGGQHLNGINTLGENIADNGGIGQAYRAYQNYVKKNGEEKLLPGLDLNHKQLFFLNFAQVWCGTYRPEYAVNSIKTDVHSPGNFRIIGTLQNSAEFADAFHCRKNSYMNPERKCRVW
Experiment: enkephalinase-inhibiting activity (3H-TGG generation from 3H-leucine enkephalin, TLC separation, scintillation counting)
Format: biochemical, Rats
Conditions: approximate IC50 determined graphically; concentration required for 50% inhibition of 3H-TGG generation; leucine enkephalin 5 x 10^-5M, 30°C
Excerpt: Rats were killed by decapitation and the striata dissected out on ice. […] The resulting supernatent was discarded and the remaining pellet washed three times.
Enkephalinase-inhibiting activity was estimated by the following procedure.

Work on `O=C(O)CNC(=O)[C@H](Cc1ccccc1)NP(=O)(O)O` [compound 2, N-Phosphoryl-L-phenylalanyl-glycine trisodium salt] yielded an IC50 of 15 nM.
“N-(Phosphoryl-phenylalanyl)leucine [compound 1]” gave an IC50 of 7 nM.
